Where two headings read alike, the source gives them in different places.
Assays:
F508del in NIH 3T3 cells = biological target: T1, F508del in NIH 3T3 cells (Homo sapiens, UniProt P13569, DEL508-508); test: 3T3 assay: membrane potential optical assay for F508del correction; type: cell-based, mouse; conditions: for EC50: compound incubation 18-24 hours at 37° C., forskolin activation; for Emax: NIH3T3, F508del NIH 3T3 cells, read-out: 3T3 Max Activity (%)
T1 construct: expressed in transfected cells
Summary of the method: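 NIH3T3 mouse fibroblasts stably expressing F508del incubated with corrector compounds at a range of concentrations for 16-24 h at 37 °C, then loaded with voltage-sensing redistribution dye. Single addition of forskolin with Cl− gradient (chloride-free gluconate bath vs. NaCl bath, pH 7.4); membrane potential change read by fluorescence on FLIPR.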

[1] = biological target: CFTR-mediated chloride transport in human intestinal epithelial enteroid cells (Homo sapiens, UniProt P13569); test: Membrane potential dye, Enteroid Assay A; type: cell-based; conditions: for Ent. A Max Activity (%): % of chloride transport of triple combination control (3 μM N-[(6-amino-2-pyridyl)sulfonyl]-6-(3-fluoro-5-isobutoxy-phenyl)-2-[(4S)-2,2,4-trimethylpyrrolidin-1-yl]pyridine-3-carboxamide, 3 μM tezacaftor, 300 nM acute ivacaftor); for EC50: enteroid cells, 18-24 hours incubation, acute 10 μM forskolin and 300 nM ivacaftor, read-out: Ent. A EC50
Summary of the method: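 Enteroids seeded at 5000 cells/well were exposed to test compound in IEMM for 18-24 h at 37 °C, then loaded with methyl oxonol membrane potential dye. Chloride transport was triggered in chloride-free buffer with 10 μM forskolin, 100 μM IBMX and 300 nM Compound III, read by fluorescence for 15 min and expressed as % of a triple-combination control.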

[2] = F508del NIH 3T3 cells, read-out: 3T3 EC50
[3] = efficacy compared to lumacaftor in combination with acutely added 300 nM Ivacaftor

T1 sequence (P13569 with tags, fused parts or gaps DEL508-508): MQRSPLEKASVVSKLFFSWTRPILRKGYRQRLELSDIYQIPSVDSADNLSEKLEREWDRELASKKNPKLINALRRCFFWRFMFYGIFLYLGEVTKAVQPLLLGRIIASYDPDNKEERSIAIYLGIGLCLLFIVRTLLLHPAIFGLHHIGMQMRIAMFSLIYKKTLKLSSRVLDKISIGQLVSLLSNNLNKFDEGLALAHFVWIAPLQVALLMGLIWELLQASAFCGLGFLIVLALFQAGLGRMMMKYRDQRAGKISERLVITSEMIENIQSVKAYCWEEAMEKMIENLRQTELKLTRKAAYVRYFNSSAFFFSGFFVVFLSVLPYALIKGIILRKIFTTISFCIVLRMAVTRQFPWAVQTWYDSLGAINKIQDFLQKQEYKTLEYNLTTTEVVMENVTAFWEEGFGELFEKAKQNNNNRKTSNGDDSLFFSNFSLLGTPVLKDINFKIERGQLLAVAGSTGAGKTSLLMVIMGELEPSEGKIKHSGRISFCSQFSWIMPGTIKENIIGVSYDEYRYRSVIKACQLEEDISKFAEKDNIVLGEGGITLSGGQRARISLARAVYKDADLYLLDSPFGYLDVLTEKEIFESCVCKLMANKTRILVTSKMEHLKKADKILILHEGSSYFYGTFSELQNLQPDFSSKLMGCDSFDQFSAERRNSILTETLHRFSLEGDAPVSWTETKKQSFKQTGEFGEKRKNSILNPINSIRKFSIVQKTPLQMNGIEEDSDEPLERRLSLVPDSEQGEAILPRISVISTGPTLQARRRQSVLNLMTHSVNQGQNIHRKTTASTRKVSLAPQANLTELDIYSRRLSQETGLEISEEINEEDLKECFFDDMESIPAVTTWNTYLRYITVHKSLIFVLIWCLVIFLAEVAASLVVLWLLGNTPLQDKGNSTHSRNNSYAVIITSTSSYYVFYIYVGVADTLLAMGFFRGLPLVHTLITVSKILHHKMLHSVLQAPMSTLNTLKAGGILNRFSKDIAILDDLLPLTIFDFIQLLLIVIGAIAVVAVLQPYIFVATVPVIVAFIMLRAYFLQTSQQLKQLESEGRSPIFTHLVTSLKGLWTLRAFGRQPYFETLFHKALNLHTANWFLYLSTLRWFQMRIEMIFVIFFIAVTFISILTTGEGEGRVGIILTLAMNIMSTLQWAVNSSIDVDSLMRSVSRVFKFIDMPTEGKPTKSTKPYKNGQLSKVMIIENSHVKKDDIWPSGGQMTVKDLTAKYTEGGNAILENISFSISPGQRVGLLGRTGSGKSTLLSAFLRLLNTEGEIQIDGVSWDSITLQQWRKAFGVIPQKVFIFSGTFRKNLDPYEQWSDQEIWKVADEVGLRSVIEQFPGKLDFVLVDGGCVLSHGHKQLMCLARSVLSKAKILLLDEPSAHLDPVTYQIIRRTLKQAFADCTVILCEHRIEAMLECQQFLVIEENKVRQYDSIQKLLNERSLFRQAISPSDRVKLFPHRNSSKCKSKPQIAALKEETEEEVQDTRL
Sequence of CFTR-mediated chloride transport in human intestinal epithelial enteroid cells (P13569 with tags, fused parts or gaps DEL508-508): as above

Row | Structure (SMILES) | EC50 (F508del in NIH 3T3 cells; [2]) [µM] | Emax (F508del in NIH 3T3 cells; [3]) [%] | Ent. A Max Activity (%) [1] | EC50 [1] [nM] | other results
1 | Cc1cccc(C)c1-c1cc2nc(n1)NS(=O)(=O)c1cccc(n1)NC(=O)C1CC(CN(C(=O)OC(C)(C)C)C1)O2 (centres unmarked) |  |  |  |  | ring closure, yield after HPLC (from Cc1cccc(C)c1-c1cc(OC2CC(C(=O)Oc3c(F)c(F)c(F)c(F)c3F)CN(C(=O)OC(C)(C)C)C2)nc(NS(=O)(=O)c2cccc(N)n2)n1, amide bond, 14-membered ring, none (thermal, OPfp ester), NMP, 10.1 mM, 140.0 °C, 5.0 h, 5 steps): 1%
2 | Cc1ccccc1-c1cc2nc(n1)NS(=O)(=O)c1cccc(c1)Nc1cccc(c1)O2 |  |  |  |  | ring closure, yield after HPLC (other bond, 13-membered ring, CuI/pyrrole-2-carboxylic acid/K3PO4, DMSO, 65.2 mM, 3 steps): 2%
3 | Cc1cccc(C)c1-c1cc2nc(n1)NS(=O)(=O)c1cccc(c1)NC(=O)C1CCCC(C1)O2 (mixture of isomers) [Compound 67, 5-(2,6-Dimethylphenyl)-9,9-dioxo-2-oxa-9λ^6-thia-6,8,15,23-tetraazatetracyclo[15.3.1.13,7.110,14]tricosa-3,5,7(23),10(22),11,13-hexaen-16-one] | < 1 | > 60 |  |  | ring closure, yield after HPLC (amide bond, 14-membered ring, HATU/DIEA, DMF, 100.0 mM, 3 steps): 20%
4 | Cc1cccc(C)c1-c1cc2nc(n1)NS(=O)(=O)c1cncc(c1)NC(=O)C1CC(CN(C(=O)OC(C)(C)C)C1)O2 (racemic) [Compound 14, tert-Butyl 19-(2,6-dimethylphenyl)-8,15,15-trioxo-2-oxa-15λ^6-thia-5,9,12,16,18,21-hexaazatetracyclo[15.3.1.13,7.110,14]tricosa-1(21),10,12,14(22),17,19-hexaene-5-carboxylate] |  |  | + (+ is <30%) | < 1000 | ring closure, yield after HPLC (from Cc1cccc(C)c1-c1cc(OC2CC(C(=O)Oc3c(F)c(F)c(F)c(F)c3F)CN(C(=O)OC(C)(C)C)C2)nc(NS(=O)(=O)c2cncc(N)c2)n1, amide bond, 14-membered ring, none (thermal, OPfp ester), NMP, 12.1 mM, 140.0 °C, 5.0 h, 5 steps): 1%
5 | Cc1cccc(C)c1-c1cc2nc(n1)NS(=O)(=O)c1cccc(c1)NC(=O)c1cccc(c1)O2 [Compound 53, 5-(2,6-Dimethylphenyl)-9,9-dioxo-2-oxa-9λ^6-thia-6,8,15,23-tetraazatetracyclo[15.3.1.13,7.110,14]tricosa-1(20),3,5,7(23),10(22),11,13,17(21),18-nonaen-16-one] | < 1 | > 60 | +++ (+++ is >60%) | 3000 to 30000 | 
6 | Cc1ccccc1-c1cc2nc(n1)NS(=O)(=O)c1cccc(c1)NC(=O)c1cccc(c1)O2 [Compound 54, 5-(o-Tolyl)-9,9-dioxo-2-oxa-9λ^6-thia-6,8,15,23-tetraazatetracyclo[15.3.1.13,7.110,14]tricosa-1(20),3,5,7(23),10(22),11,13,17(21),18-nonaen-16-one] | < 1 | > 60 |  |  | ring closure, yield after HPLC (from Cc1ccccc1-c1cc(Oc2cccc(C(=O)O)c2)nc(NS(=O)(=O)c2cccc(N)c2)n1, amide bond, 14-membered ring, HATU/DIEA, DMF, 81.2 mM, 0.33 h): 45%
7 | Cc1ccc2cc1Oc1cc(-c3c(C)cccc3C)nc(n1)NS(=O)(=O)c1cccc(c1)NC2=O [Compound 57, 5-(2,6-Dimethylphenyl)-20-methyl-2-oxa-9λ^6-thia-6,8,15,23-tetraazatetracyclo[15.3.1.13,7.110,14]tricosa-1(21),3(23),4,6,10,12,14(22),17,19-nonaene-9,9,16-trione] | < 1 | > 60 | ++ (++ is 30-60%) | < 1000 | 
8 | O=C1Nc2cccc(c2)S(=O)(=O)Nc2nc(cc(-c3cccc4ccccc34)n2)Oc2cccc1c2 [Compound 58, 5-(1-Naphthyl)-9,9-dioxo-2-oxa-9λ^6-thia-6,8,15,23-tetraazatetracyclo[15.3.1.13,7.110,14]tricosa-1(20),3,5,7(23),10(22),11,13,17(21),18-nonaen-16-one] | < 1 | > 60 | ++ (++ is 30-60%) | 1000 to 3000 | 
9 | Cc1ccccc1-c1cc2nc(n1)NS(=O)(=O)c1cccc(c1)NCc1cccc(c1)O2 [Compound 62, 5-(o-Tolyl)-2-oxa-9λ^6-thia-6,8,15,23-tetraazatetracyclo[15.3.1.13,7.110,14]tricosa-1(20),3,5,7(23),10(22),11,13,17(21),18-nonaene 9,9-dioxide] | < 1 |  |  |  | ring closure, yield after HPLC (amine bond, 14-membered ring, NaBH(OAc)3/TFA, AcOH, 3 steps): 1%
10 | Cc1ccccc1-c1cc2nc(n1)NS(=O)(=O)c1cccc(c1)NC(=O)c1ccc(cc1)O2 [Compound 63, 5-(o-Tolyl)-9,9-dioxo-2-oxa-9λ^6-thia-6,8,15,23-tetraazatetracyclo[15.2.2.13,7.110,14]tricosa-1(19),3,5,7(23),10(22),11,13,17,20-nonaen-16-one] |  |  |  |  | ring closure, yield after HPLC (amide bond, 15-membered ring, HATU/DIEA, DMF, 3 steps): 1%; EC50 (F508del in NIH 3T3 cells; 3T3 EC50 (μM), F508del NIH 3T3 cells): 1 to 3 µM
11 | Cc1cccc(C)c1-c1cc2nc(n1)NS(=O)(=O)c1cccc(c1)NC(=O)CCCCO2 [Compound 72, 6-(2,6-Dimethylphenyl)-2,2-dioxo-9-oxa-2λ^6-thia-3,5,15,21-tetrazatricyclo[14.3.1.14,8]henicosa-1(20),4(21),5,7,16,18-hexaen-14-one] | < 1 | > 60 |  |  | ring closure, yield after HPLC (amide bond, 15-membered ring, HATU/DIEA, DMF, 5 steps): 3%
12 | Cc1cccc(C)c1-c1cc2nc(c1)Oc1cccc(c1)C(=O)Nc1cccc(c1)S(=O)(=O)N2 [Compound 76, 5-(2,6-Dimethylphenyl)-9,9-dioxo-2-oxa-9λ^6-thia-8,15,23-triazatetracyclo[15.3.1.13,7.110,14]tricosa-1(21),3(23),4,6,10,12,14(22),17,19-nonaen-16-one] |  | < 30 | + (+ is <30%) |  | 
13 | CC(C)c1ccccc1-c1cc2nc(n1)NS(=O)(=O)c1cccc(c1)NC(=O)c1cccc(c1)O2 [Compound 81] | < 1 | > 60 | ++ (++ is 30-60%) | 3000 to 30000 | 
14 | Cc1cccc(C)c1-c1cc2nc(n1)NS(=O)(=O)c1cccc(c1)NC(=O)CCc1cccc(c1)O2 [Compound 108] | < 1 | > 60 | +++ (+++ is >60%) | 3000 to 30000 | 
15 | Cc1cccc(C)c1-c1cc2nc(n1)NS(=O)(=O)c1cccc(c1)NC(=O)Cc1cccc(c1)O2 [Compound 109] | 1 to 3 | > 60 | ++ (++ is 30-60%) | 3000 to 30000 | 
16 | Cc1cc2cc(c1)C(=O)Nc1cccc(c1)S(=O)(=O)Nc1nc(cc(-c3c(C)cccc3C)n1)O2 [Compound 110] | < 1 | > 60 | ++ (++ is 30-60%) | 1000 to 3000 | 
17 | Cc1ccc2cc1C(=O)Nc1cccc(c1)S(=O)(=O)Nc1nc(cc(-c3c(C)cccc3C)n1)O2 [Compound 111] | < 1 | > 60 | ++ (++ is 30-60%) | 3000 to 30000 | 
18 | Cc1cccc(C)c1-c1cc2nc(n1)NS(=O)(=O)c1cccc(c1)NC(=O)c1ccc(Cl)c(c1)O2 [Compound 117] | < 1 | > 60 | +++ (+++ is >60%) | 1000 to 3000 | 
19 | Cc1cccc(C)c1-c1cc2nc(n1)NS(=O)(=O)c1cccc(c1)NC(=O)c1cc(Cl)cc(c1)O2 [Compound 118] | < 1 | > 60 | +++ (+++ is >60%) | 1000 to 3000 | 
20 | Cc1cccc(C)c1-c1cc2nc(n1)NS(=O)(=O)c1cccc(c1)NC(=O)C1CC(CN(C(=O)OC(C)(C)C)C1)O2 (centres unmarked) [Compound 123] | < 1 | > 60 | ++ (++ is 30-60%) | < 1000 | 
21 | Cc1cccc(C)c1-c1cc2nc(n1)NS(=O)(=O)c1cccc(c1)NC(=O)C1CC(CN(C(=O)OC(C)(C)C)C1)O2 (centres unmarked) [Compound 124] | 1 to 3 |  | ++ (++ is 30-60%) | 3000 to 30000 | 3T3 Max Activity (%) (F508del in NIH 3T3 cells; F508del NIH 3T3 cells, efficacy compared to lumacaftor in combination with acutely added 300 nM Ivacaftor): +++ (+++ is >60%)

— US20230416275A1, “MODULATORS OF CYSTIC FIBROSIS TRANSMEMBRANE CONDUCTANCE REGULATOR” (VERTEX PHARMACEUTICALS INCORPORATED, priority 2020, published 2023)
